In ChEMBL document CHEMBL1743201, “Casarett and Doull's Toxicology The Basic Science of Poisons, 7th edition” (2008) one finds Activity data, which are given here for 20 compounds.

Format in all cases: ADME
The target in data set [1] is T1, Glutathione S-transferase theta-1 (Homo sapiens, UniProt P30711).
T1 sequence (P30711 whole entry): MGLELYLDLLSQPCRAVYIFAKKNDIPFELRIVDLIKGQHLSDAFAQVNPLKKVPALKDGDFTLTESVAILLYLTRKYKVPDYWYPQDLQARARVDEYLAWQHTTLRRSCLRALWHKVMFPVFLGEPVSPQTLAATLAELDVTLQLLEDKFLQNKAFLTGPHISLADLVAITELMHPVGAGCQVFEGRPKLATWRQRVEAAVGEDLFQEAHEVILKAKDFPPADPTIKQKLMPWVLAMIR
Nature of the data set: Substrates for human cytosolic glutathione transferase GSTT1.

For data set [2], the target named is T2, UDP-glucuronosyltransferase 2B15 (Homo sapiens, UniProt P54855).
T2 sequence (P54855 whole entry): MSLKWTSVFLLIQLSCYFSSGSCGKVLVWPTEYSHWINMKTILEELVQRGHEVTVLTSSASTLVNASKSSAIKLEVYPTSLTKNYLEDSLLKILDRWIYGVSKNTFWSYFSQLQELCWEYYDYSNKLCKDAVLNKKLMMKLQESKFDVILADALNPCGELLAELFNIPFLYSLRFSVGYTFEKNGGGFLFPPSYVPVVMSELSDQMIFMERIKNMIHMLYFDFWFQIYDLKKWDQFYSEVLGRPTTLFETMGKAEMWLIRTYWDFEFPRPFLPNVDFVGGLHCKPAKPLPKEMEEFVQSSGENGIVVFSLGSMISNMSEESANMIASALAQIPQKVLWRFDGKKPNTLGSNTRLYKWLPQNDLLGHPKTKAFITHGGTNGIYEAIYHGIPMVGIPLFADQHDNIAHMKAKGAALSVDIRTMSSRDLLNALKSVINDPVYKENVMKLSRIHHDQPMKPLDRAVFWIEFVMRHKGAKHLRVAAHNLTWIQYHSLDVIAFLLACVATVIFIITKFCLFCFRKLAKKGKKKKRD
Nature of the data set: Substrate of human UDP-glucuronosyltransferase UGT2B15.

In data set [3] the target is T3, Glutathione S-transferase Mu 1 (Homo sapiens, UniProt P09488).
T3 sequence (P09488 whole entry): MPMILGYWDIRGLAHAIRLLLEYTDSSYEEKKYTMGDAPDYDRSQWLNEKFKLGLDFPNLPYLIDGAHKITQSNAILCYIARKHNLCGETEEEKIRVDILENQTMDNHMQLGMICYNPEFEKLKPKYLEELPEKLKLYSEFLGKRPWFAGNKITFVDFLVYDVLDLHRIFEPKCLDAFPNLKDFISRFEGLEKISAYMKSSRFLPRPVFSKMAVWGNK
Briefly: Substrates for human cytosolic glutathione transferase GSTM1.

In data set [4] the target is Glutathione S-transferase P (Homo sapiens, UniProt P09211). Briefly: Substrates for human cytosolic glutathione transferase GSTP1.
Glutathione S-transferase P, sequence (P09211 whole entry): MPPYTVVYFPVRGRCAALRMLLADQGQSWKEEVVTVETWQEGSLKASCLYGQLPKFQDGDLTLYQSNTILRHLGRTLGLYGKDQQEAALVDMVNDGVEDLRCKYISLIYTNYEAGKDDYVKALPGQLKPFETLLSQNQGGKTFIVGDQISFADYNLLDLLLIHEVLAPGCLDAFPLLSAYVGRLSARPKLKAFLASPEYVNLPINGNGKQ
Data set [5] deals with T4, UDP-glucuronosyltransferase 1A8 (Homo sapiens, UniProt Q9HAW9).
T4 sequence (Q9HAW9 whole entry): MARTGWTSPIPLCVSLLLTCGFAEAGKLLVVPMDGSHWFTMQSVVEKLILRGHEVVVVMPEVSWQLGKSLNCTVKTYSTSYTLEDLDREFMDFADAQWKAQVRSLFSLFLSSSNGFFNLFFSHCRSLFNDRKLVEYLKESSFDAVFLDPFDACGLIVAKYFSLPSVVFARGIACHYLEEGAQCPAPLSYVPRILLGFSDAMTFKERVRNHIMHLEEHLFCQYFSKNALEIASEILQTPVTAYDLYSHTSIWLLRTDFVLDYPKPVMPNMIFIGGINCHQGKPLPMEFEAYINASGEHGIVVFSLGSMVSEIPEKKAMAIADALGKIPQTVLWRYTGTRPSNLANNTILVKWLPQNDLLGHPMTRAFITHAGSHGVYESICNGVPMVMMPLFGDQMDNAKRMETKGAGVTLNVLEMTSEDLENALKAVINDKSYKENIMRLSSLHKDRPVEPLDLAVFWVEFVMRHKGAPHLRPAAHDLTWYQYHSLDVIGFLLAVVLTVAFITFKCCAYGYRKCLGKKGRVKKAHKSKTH
Nature of the data set: Substrate of human UDP-glucuronosyltransferase UGT1A8.

Data set [6] deals with T5, UDP-glucuronosyltransferase 1A9 (Homo sapiens, UniProt O60656).
T5 sequence (O60656 whole entry): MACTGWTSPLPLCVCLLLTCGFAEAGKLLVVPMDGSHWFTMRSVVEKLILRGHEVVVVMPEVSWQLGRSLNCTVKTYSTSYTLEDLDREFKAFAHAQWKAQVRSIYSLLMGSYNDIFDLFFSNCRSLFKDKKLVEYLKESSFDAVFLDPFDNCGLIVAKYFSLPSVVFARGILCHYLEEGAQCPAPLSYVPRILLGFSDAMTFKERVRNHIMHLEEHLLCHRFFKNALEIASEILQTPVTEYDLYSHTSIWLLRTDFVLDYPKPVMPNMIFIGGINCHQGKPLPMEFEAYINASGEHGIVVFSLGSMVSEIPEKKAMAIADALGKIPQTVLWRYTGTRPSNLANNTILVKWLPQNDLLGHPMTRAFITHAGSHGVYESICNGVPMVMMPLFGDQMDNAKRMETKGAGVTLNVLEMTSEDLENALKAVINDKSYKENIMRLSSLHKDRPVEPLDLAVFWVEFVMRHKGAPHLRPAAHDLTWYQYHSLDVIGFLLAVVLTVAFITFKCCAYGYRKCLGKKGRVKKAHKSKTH
Nature of the data set: Substrate of human UDP-glucuronosyltransferase UGT1A9.

The target in data set [7] is T6, UDP-glucuronosyltransferase 1A10 (Homo sapiens, UniProt Q9HAW8).
T6 sequence (Q9HAW8 whole entry): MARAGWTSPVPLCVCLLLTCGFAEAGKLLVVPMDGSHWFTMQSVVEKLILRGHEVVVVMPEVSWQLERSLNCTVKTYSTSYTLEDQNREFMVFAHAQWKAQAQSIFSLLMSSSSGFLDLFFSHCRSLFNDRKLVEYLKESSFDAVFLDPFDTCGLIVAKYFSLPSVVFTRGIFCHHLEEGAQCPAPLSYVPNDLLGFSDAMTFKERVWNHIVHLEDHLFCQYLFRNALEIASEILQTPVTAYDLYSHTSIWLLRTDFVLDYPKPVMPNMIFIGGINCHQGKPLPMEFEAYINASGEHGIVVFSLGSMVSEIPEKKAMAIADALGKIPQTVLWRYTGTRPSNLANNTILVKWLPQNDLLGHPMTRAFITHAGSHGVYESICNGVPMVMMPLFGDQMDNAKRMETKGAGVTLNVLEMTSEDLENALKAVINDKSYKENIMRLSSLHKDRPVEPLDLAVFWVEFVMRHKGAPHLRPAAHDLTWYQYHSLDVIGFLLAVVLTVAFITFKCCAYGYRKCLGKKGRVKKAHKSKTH
Briefly: Substrate of human UDP-glucuronosyltransferase UGT1A10.

For data set [8], the target named is T7, Glutathione S-transferase A1 (Homo sapiens, UniProt P08263).
T7 sequence (P08263 whole entry): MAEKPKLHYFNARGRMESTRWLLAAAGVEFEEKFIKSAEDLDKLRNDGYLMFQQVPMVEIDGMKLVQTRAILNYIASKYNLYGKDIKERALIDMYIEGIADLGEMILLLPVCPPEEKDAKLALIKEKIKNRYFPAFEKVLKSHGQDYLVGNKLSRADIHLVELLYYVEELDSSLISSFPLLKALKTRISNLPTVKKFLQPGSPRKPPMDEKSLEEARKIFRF
Briefly: Substrates for human cytosolic glutathione transferase GSTA1.

The target of data set [9] is T8, Sulfotransferase 1E1 (Homo sapiens, UniProt P49888).
T8 sequence (P49888 whole entry): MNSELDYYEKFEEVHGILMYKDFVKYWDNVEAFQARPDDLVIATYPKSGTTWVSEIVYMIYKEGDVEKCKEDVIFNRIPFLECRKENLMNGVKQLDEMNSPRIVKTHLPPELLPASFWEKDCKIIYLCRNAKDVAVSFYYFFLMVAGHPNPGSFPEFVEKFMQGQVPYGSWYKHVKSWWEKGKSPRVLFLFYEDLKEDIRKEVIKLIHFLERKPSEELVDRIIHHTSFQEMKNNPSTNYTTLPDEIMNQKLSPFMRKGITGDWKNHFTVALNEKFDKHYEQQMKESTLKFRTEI
Nature of the data set: Major substrate of human cytosolic sulfotransferase SULT1E1.

Data set [10] addresses T9, UDP-glucuronosyltransferase 1A6 (Homo sapiens, UniProt P19224).
T9 sequence (P19224 whole entry): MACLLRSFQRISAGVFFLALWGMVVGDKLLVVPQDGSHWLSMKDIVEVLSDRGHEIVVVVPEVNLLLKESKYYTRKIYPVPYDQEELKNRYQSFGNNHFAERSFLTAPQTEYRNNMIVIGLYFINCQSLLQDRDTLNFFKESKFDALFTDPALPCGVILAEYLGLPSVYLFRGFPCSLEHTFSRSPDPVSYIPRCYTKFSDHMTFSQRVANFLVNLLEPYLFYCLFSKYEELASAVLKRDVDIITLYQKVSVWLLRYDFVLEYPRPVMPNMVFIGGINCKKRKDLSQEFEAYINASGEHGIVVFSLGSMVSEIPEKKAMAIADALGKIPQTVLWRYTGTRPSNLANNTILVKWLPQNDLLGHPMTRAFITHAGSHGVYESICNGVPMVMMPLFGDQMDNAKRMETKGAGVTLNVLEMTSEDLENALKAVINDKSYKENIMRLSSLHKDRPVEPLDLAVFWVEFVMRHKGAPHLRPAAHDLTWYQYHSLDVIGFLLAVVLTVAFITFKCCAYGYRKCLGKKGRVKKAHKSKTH
Nature of the data set: Substrate of human UDP-glucuronosyltransferase UGT1A6.

Data set [11] addresses T10, UDP-glucuronosyltransferase 1A1 (Homo sapiens, UniProt P22309).
T10 sequence (P22309 whole entry): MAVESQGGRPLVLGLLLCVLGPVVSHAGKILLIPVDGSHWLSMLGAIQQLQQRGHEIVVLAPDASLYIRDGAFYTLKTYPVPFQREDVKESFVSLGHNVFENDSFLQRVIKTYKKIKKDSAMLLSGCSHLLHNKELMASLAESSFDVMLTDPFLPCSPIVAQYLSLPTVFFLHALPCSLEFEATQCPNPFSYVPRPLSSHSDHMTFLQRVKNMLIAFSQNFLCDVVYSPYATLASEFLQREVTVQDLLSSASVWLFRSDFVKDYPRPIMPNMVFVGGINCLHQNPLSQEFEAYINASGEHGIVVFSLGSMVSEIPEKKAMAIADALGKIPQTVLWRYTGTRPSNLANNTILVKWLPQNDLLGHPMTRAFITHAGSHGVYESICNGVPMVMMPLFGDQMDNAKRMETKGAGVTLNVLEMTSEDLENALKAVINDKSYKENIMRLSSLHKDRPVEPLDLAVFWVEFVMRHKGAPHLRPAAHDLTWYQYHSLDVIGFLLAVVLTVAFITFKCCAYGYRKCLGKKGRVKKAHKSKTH
Briefly: Substrate of human UDP-glucuronosyltransferase UGT1A1.

Data set [12] deals with Cytochrome P450 2C9 (Homo sapiens, UniProt P11712). Nature of the data set: Clinically relevant substrates of human liver microsomal P450 enzymes, isoform CYP2C9. The conditions noted are these: microsomes.
Cytochrome P450 2C9, sequence (P11712 whole entry, canonical isoform): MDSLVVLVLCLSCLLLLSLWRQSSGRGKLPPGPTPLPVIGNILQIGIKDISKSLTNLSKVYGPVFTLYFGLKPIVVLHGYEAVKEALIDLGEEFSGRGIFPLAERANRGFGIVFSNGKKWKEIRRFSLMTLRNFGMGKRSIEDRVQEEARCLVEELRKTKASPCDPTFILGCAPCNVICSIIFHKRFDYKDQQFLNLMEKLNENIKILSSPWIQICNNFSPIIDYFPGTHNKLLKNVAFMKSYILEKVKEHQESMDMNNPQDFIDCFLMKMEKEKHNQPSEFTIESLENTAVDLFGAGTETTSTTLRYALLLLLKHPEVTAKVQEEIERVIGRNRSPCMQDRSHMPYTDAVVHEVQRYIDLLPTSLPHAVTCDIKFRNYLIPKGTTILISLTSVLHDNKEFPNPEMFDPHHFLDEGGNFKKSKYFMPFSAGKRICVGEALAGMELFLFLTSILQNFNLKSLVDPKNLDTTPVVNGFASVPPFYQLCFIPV
Data set [13] deals with T11, Glutathione S-transferase Mu 2 (Homo sapiens, UniProt P28161).
T11 sequence (P28161 whole entry): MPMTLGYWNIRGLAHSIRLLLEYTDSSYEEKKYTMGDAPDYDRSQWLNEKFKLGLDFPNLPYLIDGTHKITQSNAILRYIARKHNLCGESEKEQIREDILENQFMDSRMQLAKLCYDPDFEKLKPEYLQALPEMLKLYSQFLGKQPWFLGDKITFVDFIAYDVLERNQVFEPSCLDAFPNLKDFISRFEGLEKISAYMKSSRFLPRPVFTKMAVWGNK
Briefly: Substrates for human cytosolic glutathione transferase GSTM2.

Each structure is given as a SMILES string.

With `C=CC1CO1` (configuration not stated) [BUTADIENE EPOXIDE], in data set [1], the Activity entry is reported as “Substrate”. On the same count and under the same terms, the value for `C1CO1` [OXIRANE] was “Substrate”. For the compound `CCC(=C(c1ccc(O)cc1)c1ccc(OCCN(C)C)cc1)c1ccccc1`, the Activity result in data set [2] is “Substrate”. Regarding `Cc1ccc(C(=O)c2cc(O)c(O)c([N+](=O)[O-])c2)cc1` [TOLCAPONE], the Activity entry in [2] is given as “Substrate”. On to `O=[N+]([O-])c1ccc(OCC2CO2)cc1` (configuration not stated), for which the Activity result in [1] is on record as “Substrate”. Consider `OC1c2ccc3c(ccc4ccccc43)c2C2OC2C1O` (configuration not stated), for which the Activity entry in data set [3] and in data set [4] was “Substrate” throughout.

For the compound `NS(=O)(=O)c1cc(C(=O)O)c(NCc2ccco2)cc1Cl` [FUROSEMIDE], the Activity result in data set [5], in data set [6] and in data set [7] was “Substrate” throughout.

For the compound `OC1c2cc3ccc4cccc5ccc(c2C2OC2C1O)c3c45` (configuration not stated) [BENZO[A]PYRENE DIOL EPOXIDE], the Activity result in [8], in [3] and in data set [4] was “Substrate” throughout. Turning to `Oc1cccc2ccccc12` [1-NAPHTHOL], the Activity result in data set [9], in data set [10] and in data set [7] was “Substrate” in each case. For `c1ccc([C@H]2O[C@@H]2c2ccccc2)cc1` (relative stereo), the Activity entry in data set [3] is listed as “Substrate”. Regarding `ClCCl` [METHYLENE CHLORIDE], the Activity entry in data set [1] is listed as “Substrate”. Regarding `O=C(c1ccc(OCCN2CCCCC2)cc1)c1c(-c2ccc(O)cc2)sc2cc(O)ccc12` [RALOXIFENE], the Activity result in [11], in data set [5] and in data set [7] was “Substrate” each time.

On to `CC(C(=O)O)c1ccc(-c2ccccc2)c(F)c1` (configuration not stated) [FLURBIPROFEN], for which the Activity result in data set [12] is reported as “Substrate”. `O=C1C=C2CCNC2=CC1=O` [AMINOCHROME]: the Activity entry in data set [13] was “Substrate”. As to `NC(CC1=CC(=O)C(=O)C=C1)C(=O)O` (configuration not stated), the Activity entry in data set [13] was “Substrate”. With `c1ccc(C2CO2)cc1` (configuration not stated), the Activity entry in data set [3] is given as “Substrate”.

Consider `CCN(CC)C(=O)/C(C#N)=C/c1cc(O)c(O)c([N+](=O)[O-])c1` [ENTACAPONE], for which the Activity entry in data set [5], in data set [6] and in data set [2] was “Substrate” each time.

Consider `CC(=O)C[C@@H](c1ccccc1)c1c(O)c2ccccc2oc1=O`, for which the Activity result in data set [12] is reported as “Substrate”. On to `O=[N+]([O-])c1ccc(Cl)c(Cl)c1`, for which the Activity entry in [13] is on record as “Substrate”.

As for `OC1c2c(ccc3cc4c(ccc5ccccc54)cc23)C2OC2C1O` (configuration not stated) [DIBENZ[A,H]ANTHRACENE DIOL EPOXIDE], the Activity entry in data set [8] and in data set [3] was “Substrate” each time.
